From patent US11472803B2, “7-substituted 1-aryl-naphthyridine-3-carboxylic acid amides and use thereof” (Bayer Aktiengesellschaft, priority 2016, dated 2022) come the findings set out here.

In general, EC50 refers to the concentration needed to bring the measured effect to its halfway point. Low values mean an effect from little substance, high ones a need for much substance. Usually Emax stands for the size of the effect at its maximum, as opposed to the concentration needed.

In the test the target is T1, human M2 receptor (Homo sapiens, UniProt P08172).
T1 construct: expressed in transfected cells; host or cells: CHO-DUKX (CHO-DUKX-M2-GIRK)
T1 sequence (P08172 1-466): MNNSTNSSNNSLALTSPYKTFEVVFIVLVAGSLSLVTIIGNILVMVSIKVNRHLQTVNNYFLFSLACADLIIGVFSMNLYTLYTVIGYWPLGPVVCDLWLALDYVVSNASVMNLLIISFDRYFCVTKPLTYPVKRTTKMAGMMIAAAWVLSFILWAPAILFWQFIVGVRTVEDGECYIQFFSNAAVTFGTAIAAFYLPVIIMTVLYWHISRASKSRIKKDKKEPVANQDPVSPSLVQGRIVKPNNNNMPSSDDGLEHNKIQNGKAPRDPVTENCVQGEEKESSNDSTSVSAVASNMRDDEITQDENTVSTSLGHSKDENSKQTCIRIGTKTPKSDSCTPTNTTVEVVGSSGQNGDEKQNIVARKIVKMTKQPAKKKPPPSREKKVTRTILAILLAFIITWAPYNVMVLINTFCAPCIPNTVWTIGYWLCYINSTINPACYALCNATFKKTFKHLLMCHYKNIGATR
Briefly: Functional M2-GIRK1/4 activation test: allosteric potency (EC50) and efficiency at EC20 acetylcholine. The class given is cell-based. To be noted: CHO-DUKX-M2-GIRK cells; for EC50: voltage-sensitive dye, acetylcholine at EC20, in some cases mean of two or more determinations; for Emax / Efficiency: boosting of the acetylcholine effect at EC20 acetylcholine concentration. The source says: The binding of orthosteric agonists (endogenous ligand: acetylcholine) to the M2 receptor leads to receptor activation or a change in conformation of the receptor in the manner of a shift in equilibrium in favour of the active receptor conformation.
The agonist-induced change in conformation of the M2 receptor results in a Gαi protein activation. […] Under physiological conditions, the result is then a selective efflux of potassium from the cell along the electrochemical gradient. […] The extent of hyperpolarization can therefore be regarded as a measure of the activation of the M2 receptor.
The test cell used is a recombinant CHO-DUKX cell line which has been stably transfected with cDNA coding for the human M2 receptor and with cDNA coding for both GIRK1/4 subunits (CHO-DUKX-M2-GIRK). The transmembrane potential, or the relative changes in the transmembrane potential as a function of substance addition or M2 activation, is determined by means of a voltage-sensitive dye (FLIPR Membrane Potential Assay Kit Blue, Molecular Devices #R8034) and the measurement of cell fluorescence using a proprietary fluorescence imaging instrument.
The sowing medium consisted of MEM alpha medium (supplemented with 5% PCS, 2% Glutamax, no genticin).
For the particular measurement, the medium was removed and the cells were laden with the volt-age-sensitive dye for at least 6 min at room temperature (30 μl of loading buffer per 384-well). This was followed, in a first measurement, by the determination of the fluorescence for the resting transmembrane potential for a period of 5 sec. Thereafter, 10 μl in each case of the test substances diluted in loading buffer were added, followed by a second measurement to determine the transmembrane potential for a period of 50 sec in 1 sec increments. Finally, the cells were admixed with 10 μl of agonist solution (acetylcholine dissolved in loading buffer). Acetylcholine was used at the concentration corresponding to the EC20, which had been determined in a preliminary test. The M2-mediated GIRK1/4 activation or hyperpolarization was then monitored in a third measurement over a period of 60 sec. The EC50 value (degree of allosteric potency of test compound) and the efficiency (measure of the boosting of the acetylcholine effect at an EC20 acetylcholine concentration) were determined with the aid of a 4-parameter logistic function (Hill function).

The compound `O=C(Nc1c(Cl)cccc1Cl)c1cn(-c2ccc(F)cc2F)c2ncc(Cl)cc2c1=O` [Example 133, 6-Chloro-N-(2,6-dichlorophenyl)-1-(2,4-difluorophenyl)-4-oxo-1,4-dihydro-1,8-naphthyridine-3-carboxamide] came in with an EC50 of 1600 nM and an Emax of 81%.
In the same order, the values of `CC(C)C(NC(=O)c1cn(-c2c(F)cc(F)cc2F)c2nc(N3CC[C@H](O)C3)c(F)cc2c1=O)C(F)(F)F` (single isomer, unassigned) [Example 139] are 3.4 nM and 100%.
`CCC(NC(=O)c1cn(-c2c(F)cc(F)cc2F)c2nc(N3C[C@@H](O)[C@H](O)C3)c(F)cc2c1=O)C(C)C` (single isomer, unassigned) [Example 29] yielded a 50% effective concentration (EC50) of 2.5 nM and a maximal effect (Emax) of 100%.
Regarding `O=C(NC(C1CC1)C(F)(F)C(F)(F)F)c1cn(-c2c(F)cc(F)cc2F)c2nc(N3CC4(COC4)C3)c(F)cc2c1=O` (single isomer, unassigned) [Example 206, N-[1-cyclopropyl-2,2,3,3,3-pentafluoropropyl]-6-fluoro-7-(2-oxa-6-azaspiro[3.3]hept-6-yl)-4-oxo-1-(2,4,6-trifluorophenyl)-1,4-dihydro-1,8-naphthyridine-3-carboxamide], it took 10 nM to reach a half-maximal effect (EC50) and the Efficiency came to 100%.
Compound `O=C(N[C@@H](C1CC1)C(F)(F)F)c1cn(-c2c(F)cccc2F)c2nc(N3C[C@@H](O)[C@H](O)C3)c(F)cc2c1=O` [Example 2, N-[(1S)-1-Cyclopropyl-2,2,2-trifluoroethyl]-1-(2,6-difluorophenyl)-7-[(3R,4R)-3,4-dihydroxypyrrolidin-1-yl]-6-fluoro-4-oxo-1,4-dihydro-1,8-naphthyridine-3-carboxamide] yielded an EC50 of 35.5 nM and an Emax of 96%.
As for `CC(NC(=O)c1cn(-c2c(F)cc(F)cc2F)c2nc(N3CCC(O)C(O)C3)c(F)cc2c1=O)C(F)(F)C(F)(F)F` (stereo not shown) [Example 181, 7-(3,4-Dihydroxypiperidin-1-yl)-6-fluoro-4-oxo-N-(3,3,4,4,4-pentafluorobutan-2-yl)-1-(2,4,6-trifluorophenyl)-1,4-dihydro-1,8-naphthyridine-3-carboxamide], a half-maximal effect (EC50) was put at 13 nM and the maximal effect (Emax) stood at 83%.
For `CC(NC(=O)c1cn(-c2c(F)cc(F)cc2F)c2nc(N3CCC(O)C(O)C3)c(F)cc2c1=O)C(F)(F)C(F)(F)F` (single isomer, unassigned) [Example 183, 7-(3,4-Dihydroxypiperidin-1-yl)-6-fluoro-4-oxo-N-(3,3,4,4,4-pentafluorobutan-2-yl)-1-(2,4,6-trifluorophenyl)-1,4-dihydro-1,8-naphthyridine-3-carboxamide], the EC50 was 42.3 nM and the Efficiency is 96%.
In the same order, the values of `O=C(N[C@@H](C1CC1)C(F)(F)F)c1cn(-c2c(F)cc(F)cc2Cl)c2nc(N3C[C@@H](O)[C@H](O)C3)c(F)cc2c1=O` (single isomer, unassigned) [Example 52] are 1.3 nM and 83%.
For the compound `CC(NC(=O)c1cn(-c2ncc(F)cc2F)c2nc(N3CC[C@H](O)C3)c(F)cc2c1=O)C(F)(F)C(F)(F)F` (single isomer, unassigned) [Example 129], the midpoint of the response, the EC50, lay at 66 nM and the Efficiency was determined as 95%.
Take `O=C(N[C@@H](C1CC1)C(F)(F)F)c1cn(-c2c(F)cc(F)cc2F)c2nc(N3CCOCC3)c(F)cc2c1=O` [Example 147, N-[(1S)-Cyclopropyl-2,2,2-trifluoroethyl]-6-fluoro-7-(morpholin-4-yl)-4-oxo-1-(2,4,6-trifluorophenyl)-1,4-dihydro-1,8-naphthyridine-3-carboxamide]: it took 16 nM to reach a half-maximal effect (EC50) and the Emax stood at 94%.
Take `CC(NC(=O)c1cn(-c2c(F)cc(F)cc2F)c2nc(N3CC[C@H](O)C3)c(Br)cc2c1=O)C(F)(F)C(F)(F)F` (single isomer, unassigned) [Example 232]: the EC50 was determined as 7 nM and the maximal effect (Emax) amounted to 100%.
In the case of `CC(C)[C@@H](C)NC(=O)c1cn(-c2c(F)cc(F)cc2F)c2nc(N3CC[C@H](O)C3)c(F)cc2c1=O` [Example 120, 6-Fluoro-7-[(3S)-3-hydroxypyrrolidin-1-yl]-N-[(2R)-3-methylbutan-2-yl]-4-oxo-1-(2,4,6-tri-fluorophenyl)-1,4-dihydro-1,8-naphthyridine-3-carboxamide], the EC50 was 10.5 nM and the Emax came out at 96%.
`CC[C@@H](NC(=O)c1cn(-c2c(F)cc(F)cc2F)c2nc(N3C[C@H](O)[C@@H](O)C3)c(F)cc2c1=O)C(F)(F)F` [Example 156, 7-[(3S,4S)-3,4-Dihydroxypyrrolidin-1-yl]-6-fluoro-4-oxo-N-[(2R)-1,1,1-trifluorobutan-2-yl]-1-(2,4,6-trifluorophenyl)-1,4-dihydro-1,8-naphthyridine-3-carboxamide] had a 50% effective concentration (EC50) of 11 nM and a maximum response (Emax) of 100%.
Regarding `CC(C)(C)C(NC(=O)c1cn(-c2c(F)cc(F)cc2F)c2nc(N3CC(CO)(CO)C3)c(F)cc2c1=O)C(F)(F)C(F)(F)F` (single isomer, unassigned) [Example 216, 7-[3,3-bis(hydroxymethyl)azetidin-1-yl]-6-fluoro-4-oxo-N-[1,1,1,2,2-pentafluoro-4,4-dimethylpentan-3-yl]-1-(2,4,6-trifluorophenyl)-1,4-dihydro-1,8-naphthyridine-3-carboxamide], the EC50 is 1.5 nM and the Efficiency was found to be 99%.
As for `CN(C)c1nc2c(cc1F)c(=O)c(C(=O)NC(C(F)(F)F)C(F)(F)F)cn2-c1c(F)cc(F)cc1Cl` [Example 180, 1-(2-Chloro-4,6-difluorophenyl)-7-(dimethylamino)-6-fluoro-N-(1,1,1,3,3,3-hexafluoropropan-2-yl)-4-oxo-1,4-dihydro-1,8-naphthyridine-3-carboxamide], it took 8.5 nM to reach a half-maximal effect (EC50) and the maximal response (Emax) came to 86%.
The matching figures for `C[C@H](NC(=O)c1cn(-c2c(F)cc(F)cc2F)c2nc(N3C[C@@H](O)[C@H](O)C3)c(F)cc2c1=O)C1CC1` [Example 20, N-[(1S)-1-cyclopropylethyl]-7-[(3R,4R)-3,4-dihydroxypyrrolidin-1-yl]-6-fluoro-4-oxo-1-(2,4,6-trifluorophenyl)-1,4-dihydro-1,8-naphthyridine-3-carboxamide]: 13 nM and 92%.
The matching figures for `C[C@H](O)CN(C)c1nc2c(cc1F)c(=O)c(C(=O)N[C@@H](C1CC1)C(F)(F)F)cn2-c1c(F)cc(F)cc1Cl` [Example 72, 1-(2-Chloro-4,6-difluorophenyl)-N-[(1S)-1-cyclopropyl-2,2,2-trifluoroethyl]-6-fluoro-7-{[(2S)-2-hydroxypropyl](methyl)amino}-4-oxo-1,4-dihydro-1,8-naphthyridine-3-carboxamide]: 11 nM and 89%.
Turning to `CCC(C)(CC)NC(=O)c1cn(-c2c(F)cc(F)cc2F)c2nc(N3C[C@@H](O)[C@@H](O)C3)c(F)cc2c1=O` [Example 78, 7-[(3R,4S)-3,4-Dihydroxypyrrolidin-1-yl]-6-fluoro-N-(3-methylpentan-3-yl)-4-oxo-1-(2,4,6-trifluorophenyl)-1,4-dihydro-1,8-naphthyridine-3-carboxamide], the EC50 was determined as 2.8 nM and the Emax came out at 100%.
In turn, `CC(C)(NC(=O)c1cn(-c2c(F)cc(F)cc2Cl)c2nc(N3C[C@@H](O)[C@H](O)C3)c(F)cc2c1=O)C(F)(F)F` (single isomer, unassigned) [Example 50] showed a concentration for a half-maximal effect (EC50) of 2.5 nM and an Efficiency of 60%.
Compound `O=C(NC(C(F)(F)F)C(F)(F)F)c1cn(-c2ncc(F)cc2F)c2nc(N3CCCC[C@@H]3CO)c(F)cc2c1=O` [Example 190, 1-(3,5-Difluoropyridin-2-yl)-6-fluoro-N-(1,1,1,3,3,3-hexafluoropropan-2-yl)-7-[(2R)-2-(hydroxymethyl)piperidin-1-yl]-4-oxo-1,4-dihydro-1,8-naphthyridine-3-carboxamide] showed an EC50 of 83.5 nM and an Emax of 100%.
